Measurements reported in patent US20090062255A1, “TUMOR-TARGETING EVALUATION METHODOLOGY AND COMPOUNDS RELATED THERETO” (THALLION PHARMACEUTICALS INC., priority 2007, published 2009).

Key:
[1] = test system: MES-SA/DX5 (doxorubicin-resistant P-glycoprotein over-expressing variant); experiment: Growth inhibitory MTT assay, MES-SA/DX5; format: cell-based, human; details: 72 hours, treated over control
Experimental: (§1) Growth inhibitory activity of ECO-4601 (Compound 1) and other dibenzodiazepinone analogs was evaluated on a panel of 4 human tumor cell lines: the human uterine sarcoma MES-SA and its doxorubicin-resistant P-glycoprotein over-expressing variant, MES-SA/DX5 as well as non-aggressive and highly aggressive human breast cell lines, MCF-7 and MDA-MB-231, respectively. These four cell lines were obtained from the American Type Culture Collection (Manassas, Va.) and cultured in RPMI plus 10% fetal bovine serum (FBS) and maintained at 37° C. with 5% CO2.
(§2) Exponentially growing cells (5,000 cells per well time; cell number determined with a hemocytometer) were seeded in 96-well flat-bottom plates and allowed to grow overnight. Cells were then incubated for 72 hours with three different concentrations of ECO-4601 or analogs: 30,10, and 3 μM. The in vitro growth inhibitory activity was determined by a commercial MTT assay. All measurements were done in quadruplicate and each experiment was performed 2-3 times. The lower the value, the more cytotoxic is the compound.

[2] = test system: human breast cell line MCF-7; experiment: Growth inhibitory MTT assay, MCF-7; format: cell-based; details: 72 hours, treated over control
Experimental: as §1, §2

[3] = molecular target: T1, peripheral benzodiazepine receptor (PBR) (Rattus norvegicus, UniProt P16257); experiment: In-house PBR binding assay ([3H]PK11195, rat heart mitochondrial membranes); details: in-house radioligand-binding assay
T1 construct: CBR and PBR were obtained from rat brain and heart membrane-fractions, respectively; from tissue; host or cells: Wistar rat heart membranes

[4] = test system: human breast cell line MDA-MB-231; experiment: Growth inhibitory MTT assay, MDA-MB-231; format: cell-based; details: 72 hours, treated over control
Experimental: as §1, §2

[5] = test system: human uterine sarcoma MES-SA; experiment: Growth inhibitory MTT assay, MES-SA; format: cell-based; details: 72 hours, treated over control
Experimental: as §1, §2

PBR = molecular target: T2, PBR (Rattus norvegicus, UniProt P16257); experiment: In vivo PBR occupancy by PET (11C-(R)-PK11195) following IP administration; details: 30 mg/kg IP
T2 construct: from tissue; host or cells: orthotopic rat C6 glioma in Sprague-Dawley rats, in vivo
Experimental: (R)-1-(2-chlorophenyl)-N-methyl-N-(1-methyl-propyl)-3-isoquinoline carboxamide (R N-desmethyl PK11195), the precursor for the radioisotope-labeled (R) —PK11195, was purchased from ABX (Radeburg, Germany). The synthesis of ^11C-(R)-PK11195 was accomplished by a modification of the method of Camsonne et al. (J. Label. Compd. Radiopharm., 21: 985-991,1984). Briefly, ^11C-methyl iodide (^11C—CH3I) was transferred by a stream of nitrogen gas at a flow rate of 10 ml/min into a reaction medium containing 1 mg or R—N-desmethyl PK11195 previously dissolved in 0.5 mL of dimethylsulfoxide (DMSO) and about 20 mg of sodium hydroxide. The reaction was initiated at room temperature, with a bubbling of the ^11C—CH3I being continued over a 5 minute period. After bubbling was complete, the reaction mixture was left standing for 5 minutes. Purification was performed by high pressure liquid chromatography (HPLC) using a reverse-phase C18 column and a methanol:ammonium formate (20 mM) (80:20) mixture and a mobile phase at a flow rate of 3 mL/min. ^11C—(R) —PK11195 was eluted at 11 minutes and obtained with a specific radioactivity of […].
In vivo PET studies were performed 14 days post tumor implantation. […] Attenuation correction factors, for each rat (total of 7 animals), were determined using a 10 min ^57Co transmission scan acquired immediately prior to the dynamic scan. […]

| IC50 [3] | reduction of PBR occupancy for 11C-(R)-PK11195 binding, average (PBR) | Compound | % T/C at 10 μM [1] | % T/C at 10 μM [2] | % T/C at 10 μM [4] | % T/C at 10 μM [5] |
| --- | --- | --- | --- | --- | --- | --- |
| 10 nM |  | CC(C)=CCC/C(C)=C/CC/C(C)=C/CN1C(=O)c2cccc(O)c2Nc2c1cc(O)c(C1CCCO1)c2O (stereo not drawn) [Compound 100] | 86% | 38% | 43% | 18% |
|  | 31% | 10-farnesyl-4,6,8-trihydroxy-5,10-dihydrodibenzo[b,e][1,4]diazepin-11-one [Compound 1] |  |  |  |  |
